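Tested at 5 concentrations; 48 h exposure; 96-well plates; endpoints linearly interpolated, else capped at highest concentration. Definition used: TGI = concentration required for complete inhibition of growth.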
System: NCI-H226 lung
Assay: NCI-60 cell line screen, 48 h

Compound	TGI [µM]
CN1C(=O)C2CCCC(=O)N2c2cccnc21 (centres undefined)	> 100
Cc1ncc([N+](=O)[O-])n1CCNCCCCn1ccnc1[N+](=O)[O-]	> 100

System: NCI-H23 lung
Assay: NCI-60 cell line screen, 48 h

Compound	TGI [µM]
CC12CCC3c4ccc(O)cc4CCC3C1C/C(=N\O)C2O (centres undefined)	> 100
O=c1[nH]c2ccc(O)cc2o1	> 100
CC(=O)N(C)CCc1c[nH]c2ccccc12	> 100
O=C(NNC(=O)c1ccccc1O)c1cccc(Br)c1	> 100
CCOc1nnnc2nc[nH]c12	> 100
CN(C)CCSc1cc(-c2ccccc2)c2ccccc2n1	23.1
CN1C(=O)C2CCCC(=O)N2c2cccnc21 (centres undefined)	> 100
Cc1ncc([N+](=O)[O-])n1CCNCCCCn1ccnc1[N+](=O)[O-]	> 100

System: NCI-H460 lung
Assay: NCI-60 cell line screen, 48 h

Compound	TGI [µM]
CC12CCC3c4ccc(O)cc4CCC3C1C/C(=N\O)C2O (centres undefined)	> 100
O=c1[nH]c2ccc(O)cc2o1	> 100
CC(=O)N(C)CCc1c[nH]c2ccccc12	> 100
O=C(NNC(=O)c1ccccc1O)c1cccc(Br)c1	> 100
CCOc1nnnc2nc[nH]c12	> 100
CN1C(=O)C2CCCC(=O)N2c2cccnc21 (centres undefined)	> 100
Cc1ncc([N+](=O)[O-])n1CCNCCCCn1ccnc1[N+](=O)[O-]	> 100

System: NCI-H522 lung
Assay: NCI-60 cell line screen, 48 h

Compound	TGI [µM]
CC12CCC3c4ccc(O)cc4CCC3C1C/C(=N\O)C2O (centres undefined)	> 100
O=c1[nH]c2ccc(O)cc2o1	> 100
CC(=O)N(C)CCc1c[nH]c2ccccc12	> 100
O=C(NNC(=O)c1ccccc1O)c1cccc(Br)c1	83.3
CCOc1nnnc2nc[nH]c12	> 100
CN(C)CCSc1cc(-c2ccccc2)c2ccccc2n1	24.1
CN1C(=O)C2CCCC(=O)N2c2cccnc21 (centres undefined)	> 100
Cc1ncc([N+](=O)[O-])n1CCNCCCCn1ccnc1[N+](=O)[O-]	> 100

System: NCI/ADR-RES ovarian
Assay: NCI-60 cell line screen, 48 h

Compound	TGI [µM]
CC12CCC3c4ccc(O)cc4CCC3C1C/C(=N\O)C2O (centres undefined)	> 100
O=c1[nH]c2ccc(O)cc2o1	> 100
CC(=O)N(C)CCc1c[nH]c2ccccc12	> 100
O=C(NNC(=O)c1ccccc1O)c1cccc(Br)c1	> 100
CCOc1nnnc2nc[nH]c12	> 100
CN(C)CCSc1cc(-c2ccccc2)c2ccccc2n1	31.5
CN1C(=O)C2CCCC(=O)N2c2cccnc21 (centres undefined)	> 100
Cc1ncc([N+](=O)[O-])n1CCNCCCCn1ccnc1[N+](=O)[O-]	> 100

System: OVCAR-3 ovarian
Assay: NCI-60 cell line screen, 48 h

Compound	TGI [µM]
CC12CCC3c4ccc(O)cc4CCC3C1C/C(=N\O)C2O (centres undefined)	> 100
O=c1[nH]c2ccc(O)cc2o1	> 100
CC(=O)N(C)CCc1c[nH]c2ccccc12	> 100
O=C(NNC(=O)c1ccccc1O)c1cccc(Br)c1	> 100
CCOc1nnnc2nc[nH]c12	> 100
CN1C(=O)C2CCCC(=O)N2c2cccnc21 (centres undefined)	> 100
Cc1ncc([N+](=O)[O-])n1CCNCCCCn1ccnc1[N+](=O)[O-]	> 100

System: OVCAR-4 ovarian
Assay: NCI-60 cell line screen, 48 h

Compound	TGI [µM]
CC12CCC3c4ccc(O)cc4CCC3C1C/C(=N\O)C2O (centres undefined)	> 100
O=c1[nH]c2ccc(O)cc2o1	> 100
CC(=O)N(C)CCc1c[nH]c2ccccc12	> 100
O=C(NNC(=O)c1ccccc1O)c1cccc(Br)c1	> 100
CCOc1nnnc2nc[nH]c12	> 100
CN1C(=O)C2CCCC(=O)N2c2cccnc21 (centres undefined)	> 100
Cc1ncc([N+](=O)[O-])n1CCNCCCCn1ccnc1[N+](=O)[O-]	> 100

System: OVCAR-5 ovarian
Assay: NCI-60 cell line screen, 48 h

Compound	TGI [µM]
CC12CCC3c4ccc(O)cc4CCC3C1C/C(=N\O)C2O (centres undefined)	> 100
O=c1[nH]c2ccc(O)cc2o1	> 100
CC(=O)N(C)CCc1c[nH]c2ccccc12	> 100
O=C(NNC(=O)c1ccccc1O)c1cccc(Br)c1	> 100
CCOc1nnnc2nc[nH]c12	> 100
CN(C)CCSc1cc(-c2ccccc2)c2ccccc2n1	26.2
Cc1ncc([N+](=O)[O-])n1CCNCCCCn1ccnc1[N+](=O)[O-]	> 100

System: OVCAR-8 ovarian
Assay: NCI-60 cell line screen, 48 h

Compound	TGI [µM]
CC12CCC3c4ccc(O)cc4CCC3C1C/C(=N\O)C2O (centres undefined)	> 100
O=c1[nH]c2ccc(O)cc2o1	> 100
CC(=O)N(C)CCc1c[nH]c2ccccc12	> 100
O=C(NNC(=O)c1ccccc1O)c1cccc(Br)c1	> 100
CCOc1nnnc2nc[nH]c12	> 100
CN(C)CCSc1cc(-c2ccccc2)c2ccccc2n1	58.5
CN1C(=O)C2CCCC(=O)N2c2cccnc21 (centres undefined)	> 100
Cc1ncc([N+](=O)[O-])n1CCNCCCCn1ccnc1[N+](=O)[O-]	> 100

System: PC-3 prostate
Assay: NCI-60 cell line screen, 48 h

Compound	TGI [µM]
CC12CCC3c4ccc(O)cc4CCC3C1C/C(=N\O)C2O (centres undefined)	> 100
O=c1[nH]c2ccc(O)cc2o1	> 100
CC(=O)N(C)CCc1c[nH]c2ccccc12	> 100
O=C(NNC(=O)c1ccccc1O)c1cccc(Br)c1	> 100
CCOc1nnnc2nc[nH]c12	> 100
CN(C)CCSc1cc(-c2ccccc2)c2ccccc2n1	24.6
Cc1ncc([N+](=O)[O-])n1CCNCCCCn1ccnc1[N+](=O)[O-]	> 100

System: RPMI-8226 leukemia
Assay: NCI-60 cell line screen, 48 h

Compound	TGI [µM]
CC12CCC3c4ccc(O)cc4CCC3C1C/C(=N\O)C2O (centres undefined)	> 100
CC(=O)N(C)CCc1c[nH]c2ccccc12	> 100
O=C(NNC(=O)c1ccccc1O)c1cccc(Br)c1	> 100
CCOc1nnnc2nc[nH]c12	> 100
CN(C)CCSc1cc(-c2ccccc2)c2ccccc2n1	> 100
CN1C(=O)C2CCCC(=O)N2c2cccnc21 (centres undefined)	> 100
Cc1ncc([N+](=O)[O-])n1CCNCCCCn1ccnc1[N+](=O)[O-]	> 100

System: RXF 393 renal
Assay: NCI-60 cell line screen, 48 h

Compound	TGI [µM]
CC12CCC3c4ccc(O)cc4CCC3C1C/C(=N\O)C2O (centres undefined)	> 100
O=c1[nH]c2ccc(O)cc2o1	> 100
O=C(NNC(=O)c1ccccc1O)c1cccc(Br)c1	> 100
CCOc1nnnc2nc[nH]c12	> 100
CN(C)CCSc1cc(-c2ccccc2)c2ccccc2n1	15.8
Cc1ncc([N+](=O)[O-])n1CCNCCCCn1ccnc1[N+](=O)[O-]	> 100

System: SF-268 CNS
Assay: NCI-60 cell line screen, 48 h

Compound	TGI [µM]
CC12CCC3c4ccc(O)cc4CCC3C1C/C(=N\O)C2O (centres undefined)	> 100
O=c1[nH]c2ccc(O)cc2o1	> 100
CC(=O)N(C)CCc1c[nH]c2ccccc12	> 100
O=C(NNC(=O)c1ccccc1O)c1cccc(Br)c1	> 100
CCOc1nnnc2nc[nH]c12	> 100
CN(C)CCSc1cc(-c2ccccc2)c2ccccc2n1	27.1
CN1C(=O)C2CCCC(=O)N2c2cccnc21 (centres undefined)	> 100
Cc1ncc([N+](=O)[O-])n1CCNCCCCn1ccnc1[N+](=O)[O-]	> 100

System: SF-295 CNS
Assay: NCI-60 cell line screen, 48 h

Compound	TGI [µM]
CC12CCC3c4ccc(O)cc4CCC3C1C/C(=N\O)C2O (centres undefined)	> 100
O=c1[nH]c2ccc(O)cc2o1	> 100
CC(=O)N(C)CCc1c[nH]c2ccccc12	> 100
O=C(NNC(=O)c1ccccc1O)c1cccc(Br)c1	> 100
CCOc1nnnc2nc[nH]c12	> 100
CN(C)CCSc1cc(-c2ccccc2)c2ccccc2n1	28
CN1C(=O)C2CCCC(=O)N2c2cccnc21 (centres undefined)	> 100
Cc1ncc([N+](=O)[O-])n1CCNCCCCn1ccnc1[N+](=O)[O-]	> 100

System: SF-539 CNS
Assay: NCI-60 cell line screen, 48 h

Compound	TGI [µM]
CC12CCC3c4ccc(O)cc4CCC3C1C/C(=N\O)C2O (centres undefined)	> 100
O=c1[nH]c2ccc(O)cc2o1	> 100
CC(=O)N(C)CCc1c[nH]c2ccccc12	> 100
O=C(NNC(=O)c1ccccc1O)c1cccc(Br)c1	> 100
CCOc1nnnc2nc[nH]c12	> 100
CN(C)CCSc1cc(-c2ccccc2)c2ccccc2n1	23
CN1C(=O)C2CCCC(=O)N2c2cccnc21 (centres undefined)	> 100
Cc1ncc([N+](=O)[O-])n1CCNCCCCn1ccnc1[N+](=O)[O-]	> 100

System: SK-MEL-2 melanoma
Assay: NCI-60 cell line screen, 48 h

Compound	TGI [µM]
CC12CCC3c4ccc(O)cc4CCC3C1C/C(=N\O)C2O (centres undefined)	> 100
CC(=O)N(C)CCc1c[nH]c2ccccc12	> 100
O=C(NNC(=O)c1ccccc1O)c1cccc(Br)c1	> 100

Reference: PubChem BioAssay (NCI)
